Literature values, collected in patent publication US20240139231A1, “METFORMIN COMPOSITIONS AND METHODS FOR TREATMENT OF DIABETES” (priority 2018, published 2024).

Tests used:
[1] = 500 mg/day co-administered with metformin, 12 weeks

Row | SMILES | time to maximum effect (blood glucose levels; depending on the dose) | low threshold dose at which effects on blood glucose levels become significant (blood glucose levels; in vivo) | time until effects begin to appear after the user starts taking the medication (blood glucose levels; in vivo) [h] | reduction of blood sugar levels, HbA1c measure, relative to metformin in combination with a placebo (type 2 diabetes mellitus; [1]) [%] | reduction of blood sugar levels, fasting measure, relative to metformin in combination with a placebo (type 2 diabetes mellitus; [1]) [%] | reduction of blood sugar levels, post-prandial measure, relative to metformin in combination with a placebo (type 2 diabetes mellitus; [1]) | effect on blood sugar when co-administered in lower amounts (type 2 diabetes mellitus; lower amounts, earlier reports by others)
1 | CN(C)C(=N)NC(=N)N [metformin, Metformin] | within four to five days | 1,500 mg/day | ≤ 48 | – | – | – | –
2 | O=C1O[C@H]([C@@H](O)CO)C(O)=C1O [ascorbic acid] | – | – | – | 1.5 | 7 | ca. 3% | no effect
